Assay results from US8466112B2, “Compositions comprising Ornithine Ketoglutarate (OKG)” (Cutech S.r.l., priority 2007, dated 2013).

Tests used:
[1] = system: hair follicles; assay: Relative growth of hair follicles compared to control, OKG versus Ornithine and alpha-Ketoglutarate; type: cell-based, human; conditions: for Growth of hair follicles - elongation ± standard error, relative to control (100): after 6 days of cultivation
Method: (§1) Human anagen hair follicles were isolated from scalp skin and transferred for cultivation in sterile 24 well plates using a modified Williams' Medium E. Cultivation took place for nine days, while the experimental treatment of the follicles started 24 hours from the beginning of the cultivation.
(§2) Hair follicles taken from a single donor were selected for the experiments after 18 h of cultivation. Only those follicles showing a good vital stage and a growth of not less than 0.2 mm have been considered suitable to be maintained in culture. 4 groups were prepared comprising 9 follicles, plated at the density of 3 hair follicles/plate. […] The growth of the hair follicles was studied by microphotography and subsequently determined by image analysis. All the hair follicles were photographed every two days.
In order to show the superiority of OKG compared to Ornithine on one hand and alpha-Ketoglutarate on the other, the influence of these compounds on the metabolism of hair follicles was studied under the conditions as explained in Examples 1 and 2. […] Examples 3 and 4 are according to the invention, examples C1-C4 are shown for comparison.

[2] = system: cells in the dermopapilla; assay: Number of proliferative (Ki-67) and apoptotic (Apoptag) cells in the dermopapilla; type: cell-based, human; conditions: after three days of cultivation
Method: After three days of cultivation samples were taken in order to determine the relative number of cells being in the proliferative or apoptotic state. The cells in apoptotic state were determined using an Apoptag Fluorescein In-situ Apoptosis Detection Kit (Chemicon International cod. S7110), while those in proliferative state were marked with the antibody Ki-67 (monoclonal mouse anti-human Ki-67, clone MIB1, Dako Cytomation cod. M7240). The total number of cells in the dermopapilla was analysed by marking their nuclei by means of DAPI (4′, 6-diamidino-2-phenylindol dihydrochloride). The percentage of cells in the proliferative or apoptotic stage compared to the total number of cells was determined again by image analysis.

[3] = system: hair follicles; assay: Histological analysis of hair follicles (anagen/catagen phase); type: cell-based, human; conditions: after 9 days of cultivation
Source text: The experiment according to Examples 1 and 2 was terminated after 9 days of cultivation. Subsequently, the hair follicles were subjected to a histological analysis by colouring with haematossilin and eosin in order to verify the morphological state of the dermopapilla.

[4] = system: Human anagen hair follicles; assay: Growth (elongation) of cultivated human hair follicles; type: cell-based
Method: as §1, §2

[5] = system: A 549 cells; conditions: disclosed in WO 06/075924 A1; cited from earlier work

Compound: O=C(O)CCC(=O)C(=O)O [alpha-Ketoglutarate]
- Growth of hair follicles - elongation ± standard error, relative to control (100) ([1]; Conc. 0.001% b.w.): 103.1 ± 3.1%
- Growth of hair follicles - elongation ± standard error, relative to control (100) ([1]; Conc. 0.01% b.w.): 103.8 ± 3.8%

Compound: NCCC[C@H](N)C(=O)O [Ornithine]
- Growth of hair follicles - elongation ± standard error, relative to control (100) ([1]; Conc. 0.001% b.w.): 105.1 ± 5.1%
- Growth of hair follicles - elongation ± standard error, relative to control (100) ([1]; Conc. 0.01% b.w.): 102.1 ± 5.0%

Compound: Ornithine Ketoglutarate [OKG]
- Number of cells in Apoptotic stage ± standard error (of total cells) ([2]; OKG 0.1% b.w., control 0.48%): 0.17% ± 0.073
- Number of cells in Proliferative stage ± standard error (of total cells) ([2]; OKG 0.1% b.w., control 10.74%): 10.51% ± 0.17
- Effect on number of apoptotic cells (in words) [2]: significantly reduces the number of apoptotic cells
- Hair follicles in Catagen phase ([3]; OKG 0.1% b.w., control 44%): 22%
- Hair follicles in Anagen phase ([3]; OKG 0.1% b.w., control 56%): 78%
- Effect on decline to the catagen phase (in words) [3]: significantly delayed the decline to the catagen phase
- Hair follicle stimulation compared to Ornithine and alpha-Ketoglutarate taken alone (in words) ([1]; 0.001 and 0.01% b.w., 6 days): superiority and synergistic effect
- Growth of hair follicles - elongation ± standard error, relative to control (100) ([1]; Conc. 0.001% b.w.): 112.7 ± 3.1%
- Growth of hair follicles - elongation ± standard error, relative to control (100) ([1]; Conc. 0.01% b.w.): 110.4 ± 4.0%
- Growth of hair follicles - elongation ± standard error ([4]; OKG 0.005% b.w. in cultivation medium, day 1 of cultivation): 0 mm
- Growth of hair follicles - elongation ± standard error ([4]; OKG 0.005% b.w. in cultivation medium, day 3 of cultivation): 0.84 ± 0.022 mm
- Growth of hair follicles - elongation ± standard error ([4]; OKG 0.005% b.w. in cultivation medium, day 5 of cultivation): 1.50 ± 0.078 mm
- Growth of hair follicles - elongation ± standard error ([4]; OKG 0.005% b.w. in cultivation medium, day 7 of cultivation): 1.98 ± 0.155 mm
- Growth of hair follicles - elongation ± standard error ([4]; OKG 0.005% b.w. in cultivation medium, day 9 of cultivation): 2.35 ± 0.253 mm
- Growth of hair follicles - elongation ± standard error ([4]; OKG 0.01% b.w. in cultivation medium, day 1 of cultivation): 0 mm
- Growth of hair follicles - elongation ± standard error ([4]; OKG 0.01% b.w. in cultivation medium, day 3 of cultivation): 0.88 ± 0.024 mm
- Growth of hair follicles - elongation ± standard error ([4]; OKG 0.01% b.w. in cultivation medium, day 5 of cultivation): 1.63 ± 0.067 mm
- Growth of hair follicles - elongation ± standard error ([4]; OKG 0.01% b.w. in cultivation medium, day 7 of cultivation): 2.25 ± 0.086 mm
- Growth of hair follicles - elongation ± standard error ([4]; OKG 0.01% b.w. in cultivation medium, day 9 of cultivation): 2.77 ± 0.163 mm
- Effect on growth of the hair follicles (in words) ([4]; addition of OKG 0.005 to 0.01% b.w. versus control): significant increase in growth of the hair follicles
- Effect on proliferation of A 549 cells (in words) [5]: stimulate the proliferation of A 549 cells
